# Data: article PMC2633282, “A P2X receptor from the tardigrade species Hypsibius dujardini with fast kinetics and sensitivity to zinc and copper” (BMC Evolutionary Biology, 2009)
# Assays:
# Experiment in all cases: two-electrode voltage clamp, Xenopus oocytes
# Format in all cases: cell-based
# [1] = biological target: T1, HdP2X (Hypsibius dujardini, UniProt B8RGS2)
# T1 construct: full-length, 480 residues, cDNA clone in pSPORT1; cRNA in Xenopus oocytes; P2X receptors are trimers
# T1 sequence (B8RGS2 1-480): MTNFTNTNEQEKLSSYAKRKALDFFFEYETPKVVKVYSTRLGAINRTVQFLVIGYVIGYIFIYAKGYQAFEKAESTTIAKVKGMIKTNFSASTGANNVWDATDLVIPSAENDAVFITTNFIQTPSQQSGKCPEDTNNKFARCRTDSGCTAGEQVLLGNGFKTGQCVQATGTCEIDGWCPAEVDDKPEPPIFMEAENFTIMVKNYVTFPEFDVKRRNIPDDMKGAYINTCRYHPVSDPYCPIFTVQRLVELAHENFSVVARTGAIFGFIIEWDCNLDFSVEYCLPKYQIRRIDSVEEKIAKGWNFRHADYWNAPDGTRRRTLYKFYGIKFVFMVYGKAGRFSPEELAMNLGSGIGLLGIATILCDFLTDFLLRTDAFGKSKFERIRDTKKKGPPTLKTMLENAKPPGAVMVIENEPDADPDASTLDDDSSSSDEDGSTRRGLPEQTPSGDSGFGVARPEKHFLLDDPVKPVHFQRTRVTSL
# [2] = biological target: T1, HdP2X; remark: listed apart in the source
# [3] = biological target: T1, HdP2X; settings: agonist; -60 mV; ND96 with Ba2+ for Ca2+, pH 7.5
SMILES,EC50 [1],IC50 [2],further results
Nc1ncnc2c1ncn2[C@@H]1O[C@H](COP(=O)(O)OP(=O)(O)OP(=O)(O)O)[C@@H](O)[C@H]1O [ATP],44.5 µM,–,–
"Cc1nc(N=Nc2ccc(S(=O)(=O)O)cc2S(=O)(=O)O)c(COP(=O)(O)O)c(C=O)c1O [PPADS, pyridoxal-phosphate-6-azophenyl-2',4'-disulfonic acid]",–,15 µM,–
"Nc1ncnc2c1ncn2[C@@H]1O[C@H](COP(=O)(O)CP(=O)(O)OP(=O)(O)O)[C@@H](O)[C@H]1O [αβ-methylene ATP, α,β-methylene-adenosine 5'-triphosphate]",–,–,% of 100 μM ATP response at 100 μM [3]: < 50%

# Further lines, with some results ahead:
EC50 [1],IC50 [2],SMILES,further results
–,22.6 µM,Cc1ccc(C(=O)Nc2ccc(S(=O)(=O)O)c3cc(S(=O)(=O)O)cc(S(=O)(=O)O)c23)cc1NC(=O)c1cccc(NC(=O)Nc2cccc(C(=O)Nc3cc(C(=O)Nc4ccc(S(=O)(=O)O)c5cc(S(=O)(=O)O)cc(S(=O)(=O)O)c45)ccc3C)c2)c1 [suramin],–
12.2 µM,–,"Nc1ncnc2c1ncn2[C@@H]1O[C@H](COP(=O)(O)OP(=O)(O)OP(=O)(O)O)[C@@H](OC(=O)c2ccc(C(=O)c3ccccc3)cc2)[C@H]1O [Bz-ATP, 2',3'-O-4-Benzoylbenzoyl ATP]",–
